Measured values published in US6025471A, “Diazaspiro, azepino and azabicyclo therapeutic peptides” (priority 1998, dated 2000).
Where a SMILES comes first, the peptide text is derived from it. [ ]: non-standard residue; d: D form. dTrp(2-Me) = Cc1[nH]c2ccccc2c1C[C@@H](N)C(=O)O

Experiments:
[1] = tested on: human heart membranes; assay: binding of peptides on human heart membranes (displacement of radiolabelled peptide); conditions: FIG. 1
Source text: The binding abilities of certain peptides according to the invention compared to conventional peptides on human heart membranes are shown in FIG. 1. […]
Peptide A is in accordance with the invention, while peptides B-F are comparative. As shown in the figure, peptide A provided inhibition (i.e., displacement) of ^125 I-Tyr-Ala-His-D-Mrp-Ala-Trp-D-Phe-Lys-NH2 in a proportion of about 75%, whereas peptides B-F only provided about 5 to less than 35%. The greater binding affinities for the peptides of the invention illustrate that these peptides directly operate on specific receptors of heart tissue to achieve normalization of cardiac pressure.

[2] = tested on: growth hormone deficient rats; conditions: cited from earlier work

Molecule | inhibition (i.e., displacement) of 125I-Tyr-Ala-His-D-Mrp-Ala-Trp-D-Phe-Lys-NH2 [1] | effect on worsening of cardiac dysfunction [2]
[S,S-Spiro(Pro-Leu )]-D-Mrp-D-Trp-Phe-Lys-NH2 [peptide A] | about 75% | –
Cc1[nH]c2ccccc2c1C[C@@H](NC(=O)[C@@H](N)Cc1cnc[nH]1)C(=O)N[C@@H](C)C(=O)N[C@@H](Cc1c[nH]c2ccccc12)C(=O)N[C@H](Cc1ccccc1)C(=O)N[C@@H](CCCCN)C(N)=O [Hexarelin, His-D-2-methyl-Trp-Ala-Trp-D-Phe-Lys-NH2] (H-H[dTrp(2-Me)]AW[dF]K-NH2) | – | reverse the worsening of cardiac dysfunction
